Data as given in patent US10532988B2, “Crystalline forms of neurotrophin mimetic compounds and their salts” (PharmatrophiX, Inc., priority 2009, dated 2020).
Where a name gives a salt, the structure may show the parent alone. Read-outs that look alike come from different tables or passages of the source.

Key:
[1] = Solubility in water (incremental solvent addition, visual observation); details: for solubility: thermodynamic from solid
Method: Milligram size quantities of each sample were placed into a vial. Water was added and the vials were stirred for a few minutes, followed by visual observation for remaining solids. The solvent was incrementally added until the solids were dissolved, or a maximum volume of solvent was added and the experiment was terminated.

[2] = Hygroscopicity - dynamic vapor sorption (DVS); assay type: physicochemical; details: for mass greater than the original value at 0% RH after desorption: DVS desorption phase, end at 0% RH; for RH up to which the sample did not adsorb much moisture (rapid sorption above): DVS sorption phase from 0% RH; for moisture sorption at 95% RH / moisture sorption at 90% RH: 25° C.
Method: Hygroscopicity—Dynamic Vapor Sorption (DVS):
Samples were analyzed using an automated dynamic vapor sorption analyzer. The sample (about 1-10 mg) was dried in the instrument 0% RH for 6 hours.

[3] = Stability study of salts and free base under stress, HPLC total area normalization; assay type: physicochemical
Method: The scaled up salts and free base were challenged by heat (solids stored at 25 and 60° C. for 1 week), oxidation (solids stored in oxygen headspace at 25° C. for 1 week), light (solids exposed to ≥1×ICH UV confirmatory conditions), and solutions (HPLC diluent) at 25 and 40° C. for 1 week. These samples were analyzed, along with unstressed controls, by HPLC to characterize their stability.
Crystalline forms (i.e., salts and free base) of the present invention were analyzed by total area normalization (TAN). The samples were dissolved in 1:1 Acetonitrile (ACN):Water (H2O) at a concentration of 0.5 mg/mL.
Stressed samples were analyzed using HPLC to determine their impurity profiles.
The stability results shown in Table 10 represent the averages of two injections of duplicate sample preparations.

[4] = Pharmacokinetic study of salt forms in rat plasma and brain after oral gavage; assay type: in vivo; details: for AUC%Extrap / AUCINF / AUCall / Cmax / T1/2 / Tmax / Brain:Plasma Ratio / Maximum Brain Level / Kp at 8 h / AUC / AUC(0-inf) / half-life: male rats, single 25 mg/kg free base by oral gavage; for Brain:Plasma Ratio / Maximum Brain Level / Kp at 8 h: brain at 1, 3 and 8 hours; for Kp at 8 h: brain and plasma, read-out: Brain:Plasma Ratio
Method: The objective of this study was to provide preliminary pharmacokinetic information regarding the exposure of different salt forms of LM11A-31 in rat plasma and brain when dosed by oral gavage. Groups consisting of nine male rats received single doses of 25 mg/kg free base by oral gavage. Plasma samples were obtained from three rats per timepoint after administration (0.5, 1, 2, 3, 4, and 8 hours) and brain samples were collected at 1-, 3-, and 8-hour terminations (three rats per time point).
The samples were analyzed by LC-MS/MS to determine the plasma and brain concentrations of the test article. Pharmacokinetic analysis of the plasma concentration data was conducted using noncompartmental analysis with WinNonlin Version 4.1.

[5] = Stability study, qualitative proton NMR of stressed samples; assay type: physicochemical; details: heat stress (solids stored at 60° C.)
Method: To confirm the little or no degradation observed in the HPLC stability study, some samples (solids stored at 60° C. and oxidation) of four of the salts and free base were further analyzed by proton NMR (i.e., HNMR). The analysis was qualitative.

[6] = Oxidation Ambient (oxygen headspace, 25° C., 1 week)
[7] = Photo Stability - Exposed (UV, ICH confirmatory conditions)
[8] = Solution (water and acetonitrile 1:1) - 40 C., 1 week
[9] = Solution (water and acetonitrile 1:1) - Ambient, 1 week

Compound	solubility [1] [mg/mL]	overall hygroscopicity (in words) ([2]; DVS)	mass greater than the original value at 0% RH after desorption [2]	RH up to which the sample did not adsorb much moisture (rapid sorption above) [2]	moisture sorption at 95% RH ([2]; DVS sorption phase) [wt %]	HPLC Total Area Normalization - Area % Purity [3, 6] [Area %]	HPLC Total Area Normalization - Area % Purity ([3]; Photo Stability - Dark Control) [Area %]	HPLC Total Area Normalization - Area % Purity [3, 7] [Area %]	HPLC Total Area Normalization - Area % Purity ([3]; Solid State - 60 C., 1 week) [Area %]	HPLC Total Area Normalization - Area % Purity ([3]; Solid State - Ambient, 1 week) [Area %]	HPLC Total Area Normalization - Area % Purity [3, 8] [Area %]	HPLC Total Area Normalization - Area % Purity [3, 9] [Area %]	AUC%Extrap ([4]; plasma) [%]	AUCINF ([4]; plasma) [ng·h/mL]	AUCall ([4]; plasma) [ng·h/mL]	Cmax ([4]; plasma) [ng/mL]	T1/2 ([4]; plasma) [h]	Tmax ([4]; plasma) [min]	Maximum Brain Level [4] [ng/g tissue]	other results
CCC(C)C(N)C(=O)NCCN1CCOCC1 (centres unmarked) [di-HCl salt, 2-amino-3-methyl-N-(2-morpholinoethyl)-pentanamide]	> 30	quite hygroscopic	about 5 wt %	20 % RH	140	–	–	–	–	–	–	–	–	–	–	–	–	–	–	–
CCC(C)C(N)C(=O)NCCN1CCOCC1.O=C(O)C(=O)O (centres unmarked) [Monooxalate, 2-amino-3-methyl-N-(2-morpholinoethyl)-pentanamide Monooxalate]	–	did not take up much water	–	50 % RH	1.5	–	–	–	–	–	–	–	–	–	–	–	–	–	–	–
2-amino-3-methyl-N-(2-morpholinoethyl)-pentanamide Disulfate	–	–	about 4 wt %	60 % RH	140	99.97	99.97	99.94	99.98	99.98	99.75	99.90	5.26	410	416	413	1.10	30	77	Brain:Plasma Ratio [4]: 0.6-1.8; overall PK properties compared with the free base ([4]; rat, oral gavage): better PK properties than the free base; exposure (AUC and Cmax) compared with the free base ([4]; rat, oral gavage, plasma): higher exposure; solubility in water ([1]; ambient temperature): > 3
CCC(C)C(N)C(=O)NCCN1CCOCC1.CS(=O)(=O)O.CS(=O)(=O)O (centres unmarked) [Dimesylate, 2-amino-3-methyl-N-(2-morpholinoethyl)-pentanamide Dimesylate]	≥ 28	–	about 3 wt %	55 % RH	110	–	–	–	–	–	–	–	–	–	–	–	–	–	–	–
2-amino-3-methyl-N-(2-morpholinoethyl)-pentanamide Monoedisylate	–	–	–	80 % RH	–	99.95	99.97	99.86	99.95	99.79	99.90	999.81	1.52	243	247	284	0.708	30	98	Brain:Plasma Ratio [4]: 1.4-3.3; crude solubility in water [1]: ≤ 14 mg/mL; moisture sorption at 90% RH ([2]; DVS sorption phase): 85 wt %
CCC(C)C(N)C(=O)NCCN1CCOCC1.O=S(=O)(O)c1ccc2ccccc2c1.O=S(=O)(O)c1ccc2ccccc2c1 (centres unmarked) [Dinapsylate, 2-amino-3-methyl-N-(2-morpholinoethyl)-pentanamide Dinapsylate]	–	did not appear deliquescent	–	about 80 % RH	–	99.81	99.85	99.82	99.87	99.90	99.96	99.87	3.44	280	270	335	1.90	30	123	overall PK properties compared with the free base ([4]; rat, oral gavage): better PK properties than the free base; terminal plasma half-life compared with the free base ([4]; rat, oral gavage, plasma): longer terminal plasma half-life; water taken up at high humidity ([2]; DVS, high humidity, no equilibrium at the highest humidity): 3 to 4 wt %
CC[C@H](C)[C@H](N)C(=O)NCCN1CCOCC1 (stereo in doubt) [Free base, 2-amino-3-methyl-N-(2-morpholinoethyl)-pentanamide]	> 30	–	original weight	45 % RH	96	99.97	99.97	99.98	–	100	99.89	–	4.81	–	–	–	–	–	105	degradation after heat stress by proton NMR [5]: slight degradation; Kp at 8 h ([4]; rat): 2 to 3.5; AUC ([4]; rat, plasma): 321 ng·h/mL; AUC(0-inf) ([4]; rat, plasma): 316 ng·h/mL; half-life ([4]; rat, plasma): 63 min; Cmax ([4]; rat, plasma, read-out: Cmax): 371 ng/mL; Tmax ([4]; rat, plasma, read-out: Tmax): 30 min; moisture adsorbed from 45% to 50% RH ([2]; DVS sorption phase, 45% to 50% RH): ~10 wt %
2-amino-3-methyl-N-(2-morpholinoethyl)-pentanamide Digluconate	–	–	about 4 wt %	45 % RH	110	–	–	–	–	–	–	–	–	–	–	–	–	–	–	–
CCC(C)C(N)C(=O)NCCN1CCOCC1.Cc1ccc(S(=O)(=O)O)cc1.Cc1ccc(S(=O)(=O)O)cc1 (centres unmarked) [Ditosylate, 2-amino-3-methyl-N-(2-morpholinoethyl)-pentanamide Ditosylate]	0.5 to 0.7	–	–	80 % RH	–	99.92	99.94	99.93	99.94	99.82	99.91	99.89	1.45	–	–	–	–	–	120	Kp at 8 h ([4]; rat): 1 to 5.7; AUC ([4]; rat, plasma): 295 ng·h/mL; AUC(0-inf) ([4]; rat, plasma): 290 ng·h/mL; half-life ([4]; rat, plasma): 37.8 min; Cmax ([4]; rat, plasma, read-out: Cmax): 296 ng/mL; Tmax ([4]; rat, plasma, read-out: Tmax): 30 min; moisture sorption at 90% RH ([2]; DVS sorption phase): 30 wt %
